# Patent publication US8236762B2, “Peptide-cytotoxic conjugates” (IPSEN Pharma S.A.S., priority 2006, dated 2012)
# pKi: −log10 of the molar value. Like-named read-outs stand apart in the source and are kept apart here. Numbered stars: 1 amine (or outer) side, 2 acyl side, 3 side chain; on linkers, the order of the positions; unused ones are H or OH. Square brackets hold non-standard residues; d marks the D form. Peptide text beside a SMILES is read from it. * marks the point of attachment. Pipz(1-CH2CO,4-CH2CH2NH) = O=C(CN1CCN(CCN[*:1])CC1)[*:2]; X1 = CC[C@@]1(O*)C(=O)OCc2c1cc1n(c2=O)Cc2cc3ccccc3nc2-1; Suc = O=C(CCC(=O)[*:2])[*:1]; Nle = CCCC[C@H](N)C(=O)O; AEEA = NCCOCCOCC(=O)O; GABA = NCCCC(=O)O; βAla = NCCC(=O)O
# Tests used:
# [1] = Half-life determination in mouse plasma (LC-MS); type: in vitro ADME; settings: 37° C.
# Description: (§1) Samples containing approximately 50 μg/ml up to and including approximately 500 μg/ml of test compound according to Formula IA or IB or II was added to 450 μl human or mouse plasma, vortexed briefly and incubated at 37° C. At various time intervals, e.g., 0, 0.5, 1, 2, 4, 6, 8, 24, 36 and 48 hours, 50 μl of the compound-plasma mixture was added to 150 μl acetonitrile in a microcentrifuge tube. The mixture was vortexed, centrifuged for 5 minutes at 10K RPM, and 135 μl of supernatant was transferred to an injection vial. The recovered supernatant was analyzed by using a liquid chromatography-mass spectrophotometer system (LC-MS) consisting of a Finnigan Deca XP® mass spectrometer with an ESI probe at the positive ion mode. HPLC separation was carried out on a Luna 3μ C8 (2)® 3×50 mm column with a gradient decreasing from 100% A to 80% B for 10 minutes at a flow rate of 0.25 ml/min. Buffer A was 0.1% acetic acid in water and buffer B was 0.1% acetic acid acetonitrile.
# [2] = Half-life determination in human plasma (LC-MS); type: in vitro ADME; settings: 37° C.
# Description: as §1
# bombesin/GRP receptor = target: T1, bombesin/GRP receptor (Rattus norvegicus, UniProt P52500); test: Bombesin/GRP radioligand binding (AR42J rat pancreas cell membranes); settings: read-out: Ki bombesin receptor ± (SEM)
# T1 construct: AR42J rat pancreas cells expressing the native bombesin/GRP receptor; endogenous in cells; host or cells: AR42J rat pancreas cells
# T1 sequence (P52500 whole entry): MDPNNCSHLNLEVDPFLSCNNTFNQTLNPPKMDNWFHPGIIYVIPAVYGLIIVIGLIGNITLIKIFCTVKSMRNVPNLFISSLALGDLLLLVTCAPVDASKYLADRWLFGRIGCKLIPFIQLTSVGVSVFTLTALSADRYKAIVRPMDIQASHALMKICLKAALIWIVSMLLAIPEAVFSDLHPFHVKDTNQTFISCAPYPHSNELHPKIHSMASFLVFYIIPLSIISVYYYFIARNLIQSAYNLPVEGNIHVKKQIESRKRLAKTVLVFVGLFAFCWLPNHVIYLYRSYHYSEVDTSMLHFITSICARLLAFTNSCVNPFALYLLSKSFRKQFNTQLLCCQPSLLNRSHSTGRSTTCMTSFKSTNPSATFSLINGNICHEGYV
# Description: Membranes were prepared for radioligand binding studies by homogenization of AR42J rat pancreas cells expressing the native bombesin/GRP receptor in 20 ml of ice-cold 50 mM Tris-HCl with a Brinkman Polytron® (Westbury, N.Y., U.S.A.) at settings of 6, 15 seconds. The homogenates were washed twice by centrifugation (39,000 g/10 minutes) and the final pellets were resuspended in 50 mM Tris-HCl containing 2.5 mM MgCl2 and 0.1% BSA. […] The filters were then washed three times with 5-ml aliquots of ice-cold 50 mM Tris-HCl. The bound radioactivity trapped on the filters was counted by gamma spectrometry (Wallac LKB®, Gaithersburg, Md., U.S.A.).
# hSSTR-1 = target: T2, hSSTR-1 (Homo sapiens, UniProt P30872); test: Somatostatin receptor radioligand binding, hSSTR-1 (CHO-K1 membranes); settings: read-out: Ki hSSTR1 ± (SEM)
# T2 construct: expressed in transfected cells; host or cells: CHO-K1
# T2 sequence (P30872 whole entry): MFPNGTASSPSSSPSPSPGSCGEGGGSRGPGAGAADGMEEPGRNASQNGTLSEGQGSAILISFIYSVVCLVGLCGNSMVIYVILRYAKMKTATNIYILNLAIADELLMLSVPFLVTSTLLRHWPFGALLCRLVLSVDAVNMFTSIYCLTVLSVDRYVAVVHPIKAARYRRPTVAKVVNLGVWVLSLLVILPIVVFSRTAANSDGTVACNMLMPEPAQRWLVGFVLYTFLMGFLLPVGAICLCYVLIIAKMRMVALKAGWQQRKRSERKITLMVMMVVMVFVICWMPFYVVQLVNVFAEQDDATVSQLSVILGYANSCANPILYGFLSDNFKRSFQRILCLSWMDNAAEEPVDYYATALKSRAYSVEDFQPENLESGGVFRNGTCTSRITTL
# Description: Membranes for in vitro receptor binding assays were obtained by homogenizing (Polytron setting 6, 15 sec) CHO-K1 cells expressing human somatostatin receptor subtypes hSSTR-1, hSSTR-2, hSSTR-3, hSSTR-4 or hSSTR-5 in ice-cold 50 mM Tris-HCl. The homogenized cells were centrifuged twice at 39,000 g for 10 minutes with an intermediate resuspension in fresh buffer. The final pellets were resuspended in 10 mM Tris-HCl to prepare the cell membrane homogenate for use in the binding assay.
# The final assay volume was 0.3 ml.
# The cell membrane homogenate was incubated with the radioligands for 90 minutes at 25° C. The incubations were terminated by rapid filtration through GF/C filters pre-soaked in 0.3% polyethylenimine using a Brandel® filtration manifold (Gaithersberg, Md., U.S.A.). Each tube and filter was washed three times with 5-ml aliquots of ice-cold buffer. Specific binding was defined as the total radioligand bound minus that bound in the presence of 1000 nM SRIF-14 (for hSSTR-1, hSSTR-3, hSSTR-4 or hSSTR-5), or 1000 nM DPhe-c(Cys-Tyr-D-Trp-Lys-Abu-Cys)-Thr-NH2 for hSSTR-2.
# hSSTR-3 = target: T3, hSSTR-3 (Homo sapiens, UniProt P32745); test: Somatostatin receptor radioligand binding, hSSTR-3 (CHO-K1 membranes); settings: read-out: Ki hSSTR3 ± (SEM)
# T3 construct: expressed in transfected cells; host or cells: CHO-K1
# T3 sequence (P32745 whole entry): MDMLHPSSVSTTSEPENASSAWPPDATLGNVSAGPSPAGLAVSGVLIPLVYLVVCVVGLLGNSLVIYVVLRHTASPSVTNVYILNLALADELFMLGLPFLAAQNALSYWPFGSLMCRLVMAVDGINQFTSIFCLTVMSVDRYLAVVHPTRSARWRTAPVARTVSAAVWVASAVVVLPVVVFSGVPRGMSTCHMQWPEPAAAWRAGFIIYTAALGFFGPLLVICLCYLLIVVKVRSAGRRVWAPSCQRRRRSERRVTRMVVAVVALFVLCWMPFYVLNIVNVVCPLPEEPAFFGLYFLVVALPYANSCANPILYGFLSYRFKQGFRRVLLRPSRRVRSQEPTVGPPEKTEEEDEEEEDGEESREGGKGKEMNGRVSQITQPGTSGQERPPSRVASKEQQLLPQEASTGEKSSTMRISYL
# Description: (§2) For the hSSTR-1, hSSTR-3, and hSSTR-4 assays, aliquots of the membrane preparations were incubated for 90 minutes at 25° C. with 0.05 nM [^125I-Tyr11]SRIF-14 in 50 mM HEPES (pH 7.4) buffer containing 0.2% BSA and 5 mM MgCl2. The final assay volume was 0.3 ml. For the hSSTR-2 and hSSTR-5 assays, [^125I]-[4-(2-hydroxyethyl)]-1-piperazinylacetyl-D-Phe-c(Cys-Tyr-D-Trp-Lys-Abu-Cys)-Thr-NH2 (0.05 nM) and [^125I]-D-Phe-c(Cys-Tyr-D-Trp-Lys-Val-Cys)-Thr-NH2 were employed as the radioligands, respectively.
# hSSTR-4 = target: T4, hSSTR-4 (Homo sapiens, UniProt P31391); test: Somatostatin receptor radioligand binding, hSSTR-4 (CHO-K1 membranes); settings: read-out: Ki hSSTR4 ± (SEM)
# T4 construct: expressed in transfected cells; host or cells: CHO-K1
# T4 sequence (P31391 whole entry): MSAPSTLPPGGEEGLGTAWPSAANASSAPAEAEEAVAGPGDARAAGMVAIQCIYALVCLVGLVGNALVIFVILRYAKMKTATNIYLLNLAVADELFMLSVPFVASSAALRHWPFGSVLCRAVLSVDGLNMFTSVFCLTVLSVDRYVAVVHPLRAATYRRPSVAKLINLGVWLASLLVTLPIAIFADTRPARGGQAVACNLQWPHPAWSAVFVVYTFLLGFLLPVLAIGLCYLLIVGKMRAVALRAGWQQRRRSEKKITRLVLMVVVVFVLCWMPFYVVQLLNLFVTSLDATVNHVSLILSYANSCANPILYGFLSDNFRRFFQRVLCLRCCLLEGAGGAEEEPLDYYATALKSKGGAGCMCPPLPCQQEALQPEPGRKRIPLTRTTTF
# Description: as §2
# [3] = [125I-Tyr11]SRIF-14, value of 1000 indicates at least 1000
Molecule,half-life [1] [h],half-life [2] [h],pKi (bombesin/GRP receptor),pKi (hSSTR-1),pKi (hSSTR-3),pKi (hSSTR-4),pKi (hSSTR-1; [3]),pKi (hSSTR-3; [3]),pKi (hSSTR-4; [3])
"CCCC[C@H](NC(=O)[C@H](CC(C)C)NC(=O)[C@H](Cc1c[nH]cn1)NC(=O)CCNC(=O)[C@@H](NC(=O)[C@H](C)NC(=O)[C@H](Cc1c[nH]c2ccccc12)NC(=O)[C@H](CCC(N)=O)NC(=O)[C@H](CC(N)=O)NC(=O)CCCNC(=O)CN1CCN(CCNC(=O)COCCOCCNC(=O)COCCOCCNC(=O)COCCOCCNC(=O)COCCOCCNC(=O)CCC(=O)NCC(=O)O[C@]2(CC)C(=O)OCc3c2cc2n(c3=O)Cc3cc4ccccc4nc3-2)CC1)C(C)C)C(N)=O [Example 23, Camptothecin-rvGly-Suc-(Doc)4-Aepa-Gaba-Asn-Gln-Trp-Ala-Val-β-Ala-His-Leu-Nle-NH2] ({X1-Gly-Suc-AEEA-AEEA-AEEA-AEEA}-[Pipz(1-CH2CO,4-CH2CH2NH)][GABA]NQWAV[βAla]HL[Nle]-NH2)",2.9,4.2,8.12,–,–,–,–,–,–
"CCCC[C@H](NC(=O)[C@H](CC(C)C)NC(=O)[C@H](Cc1c[nH]cn1)NC(=O)CCNC(=O)[C@@H](NC(=O)[C@H](C)NC(=O)[C@H](Cc1c[nH]c2ccccc12)NC(=O)[C@H](CCC(N)=O)NC(=O)CCCCCNC(=O)CN1CCN(CCNC(=O)COCCOCCNC(=O)COCCOCCNC(=O)COCCOCCNC(=O)COCCOCCNC(=O)CCC(=O)NCC(=O)O[C@]2(CC)C(=O)OCc3c2cc2n(c3=O)Cc3cc4ccccc4nc3-2)CC1)C(C)C)C(N)=O [Example 21, Camptothecin-rvGly-Suc-(Doc)4-Aepa-Ahx-Gln-Trp-Ala-Val-β-Ala-His-Leu-Nle-NH2]",5.4,3.2,8.72,–,–,–,–,–,–
"CC[C@@H]1NC(=O)[C@H](CCCCN)NC(=O)[C@@H](Cc2c[nH]c3ccccc23)NC(=O)[C@H](Cc2ccc(O)cc2)NC(=O)[C@@H](NC(=O)[C@@H](Cc2ccccc2)NC(=O)CN2CCN(CCNC(=O)COCCOCCNC(=O)COCCOCCNC(=O)COCCOCCNC(=O)COCCOCCNC(=O)CCC(=O)N[C@@H](CC3CCCCC3)C(=O)O[C@]3(CC)C(=O)OCc4c3cc3n(c4=O)Cc4cc5ccccc5nc4-3)CC2)CSSC[C@@H](C(=O)N[C@H](C(N)=O)[C@@H](C)O)NC1=O [Example 1, Camptothecin-rvCha-Suc-(Doc)4-Aepa-DPhe-c(Cys-Tyr-DTrp-Lys-Abu-Cys)-Thr-NH2]",2,4.7,–,≤ 6.00,6.81,≤ 6.00,–,–,–
"CC[C@@H]1NC(=O)[C@H](CCCCN)NC(=O)[C@@H](Cc2c[nH]c3ccccc23)NC(=O)[C@H](Cc2ccc(O)cc2)NC(=O)[C@@H](NC(=O)[C@@H](Cc2ccccc2)NC(=O)CN2CCN(CCNC(=O)COCCOCCNC(=O)COCCOCCNC(=O)COCCOCCNC(=O)COCCOCCNC(=O)CCC(=O)N[C@@H](CCCNC(=N)N)C(=O)O[C@]3(CC)C(=O)OCc4c3cc3n(c4=O)Cc4cc5ccccc5nc4-3)CC2)CSSC[C@@H](C(=O)N[C@H](C(N)=O)[C@@H](C)O)NC1=O [Example 7, Camptothecin-rvArg-Suc-(Doc)4-Aepa-D-Phe-c(Cys-Tyr-D-Trp-Lys-Abu-Cys)-Thr-NH2]",1.2,1.5,–,≤ 6.00,6.32,≤ 6.00,–,–,–
"CC[C@@H]1NC(=O)[C@H](CCCCN)NC(=O)[C@@H](Cc2c[nH]c3ccccc23)NC(=O)[C@H](Cc2ccc(O)cc2)NC(=O)[C@@H](NC(=O)[C@@H](Cc2ccccc2)NC(=O)CN2CCN(CCNC(=O)COCCOCCNC(=O)COCCOCCNC(=O)COCCOCCNC(=O)COCCOCCNC(=O)CCC(=O)N[C@@H](CC)C(=O)O[C@]3(CC)C(=O)OCc4c3cc3n(c4=O)Cc4cc5ccccc5nc4-3)CC2)CSSC[C@@H](C(=O)N[C@H](C(N)=O)[C@@H](C)O)NC1=O [Example 12, Camptothecin-rvAbu-Suc-(Doc)4-Aepa-D-Phe-c(Cys-Tyr-D-Trp-Lys-Abu-Cys)-Thr-NH2]",6,0.7,–,≤ 6.00,–,≤ 6.00,–,–,–
"CC[C@@H]1NC(=O)[C@H](CCCCN)NC(=O)[C@@H](Cc2c[nH]c3ccccc23)NC(=O)[C@H](Cc2ccc(O)cc2)NC(=O)[C@@H](NC(=O)[C@@H](Cc2ccccc2)NC(=O)CN2CCN(CCNC(=O)COCCOCCNC(=O)COCCOCCNC(=O)COCCOCCNC(=O)COCCOCCNC(=O)CCC(=O)N[C@@H](Cc3ccccc3)C(=O)O[C@]3(CC)C(=O)OCc4c3cc3n(c4=O)Cc4cc5ccccc5nc4-3)CC2)CSSC[C@@H](C(=O)N[C@H](C(N)=O)[C@@H](C)O)NC1=O [Example 10, Camptothecin-rvPhe-Suc-(Doc)4-Aepa-D-Phe-c(Cys-Tyr-D-Trp-Lys-Abu-Cys)-Thr-NH2]",2.4,0.3,–,≤ 6.00,–,≤ 6.00,–,–,–
"CC[C@@H]1NC(=O)[C@H](CCCCN)NC(=O)[C@@H](Cc2c[nH]c3ccccc23)NC(=O)[C@H](Cc2ccc(O)cc2)NC(=O)[C@@H](NC(=O)[C@@H](Cc2ccccc2)NC(=O)CN2CCN(CCNC(=O)COCCOCCNC(=O)COCCOCCNC(=O)COCCOCCNC(=O)COCCOCCNC(=O)CCC(=O)N[C@@H](C(=O)O[C@]3(CC)C(=O)OCc4c3cc3n(c4=O)Cc4cc5ccccc5nc4-3)C(C)C)CC2)CSSC[C@@H](C(=O)N[C@H](C(N)=O)[C@@H](C)O)NC1=O [Example 13, Camptothecin-rvD-Val-Suc-(Doc)4-Aepa-D-Phe-c(Cys-Tyr-D-Trp-Lys-Abu-Cys)-Thr-NH2]",7.7,0.3,–,≤ 6.00,–,≤ 6.00,–,–,–
"CC[C@@H]1NC(=O)[C@H](CCCCN)NC(=O)[C@@H](Cc2c[nH]c3ccccc23)NC(=O)[C@H](Cc2ccc(O)cc2)NC(=O)[C@@H](NC(=O)[C@@H](Cc2ccccc2)NC(=O)CN2CCN(CCNC(=O)COCCOCCNC(=O)COCCOCCNC(=O)COCCOCCNC(=O)COCCOCCNC(=O)CCC(=O)N[C@@H](C)C(=O)O[C@]3(CC)C(=O)OCc4c3cc3n(c4=O)Cc4cc5ccccc5nc4-3)CC2)CSSC[C@@H](C(=O)N[C@H](C(N)=O)[C@@H](C)O)NC1=O [Example 14, Camptothecin-rvAla-Suc-(Doc)4-Aepa-D-Phe-c(Cys-Tyr-D-Trp-Lys-Abu-Cys)-Thr-NH2]",4.6,1.3,–,≤ 6.00,≤ 6.00,≤ 6.00,–,–,–
"CC[C@@H]1NC(=O)[C@H](CCCCN)NC(=O)[C@@H](Cc2c[nH]c3ccccc23)NC(=O)[C@H](Cc2ccc(O)cc2)NC(=O)[C@@H](NC(=O)[C@@H](Cc2ccccc2)NC(=O)CN2CCN(CCNC(=O)COCCOCCNC(=O)COCCOCCNC(=O)COCCOCCNC(=O)COCCOCCNC(=O)CCC(=O)N[C@H](CNC(=O)OCc3ccccc3)C(=O)O[C@]3(CC)C(=O)OCc4c3cc3n(c4=O)Cc4cc5ccccc5nc4-3)CC2)CSSC[C@@H](C(=O)N[C@H](C(N)=O)[C@@H](C)O)NC1=O [Example 9, Camptothecin-rvD-Dap(Z)-Suc-(Doc)4-Aepa-D-Phe-c(Cys-Tyr-D-Trp-Lys-Abu-Cys)-Thr-NH2]",1.7,0.7,–,≤ 6.00,–,≤ 6.00,–,–,–
Camptothecin-rvD-Asp-Suc-(Doc)4-Aepa-D-Phe-c(Cys-Tyr-D-Trp-Lys-Abu-Cys)-Thr-NH2 Camptothecin-rvAsp-Suc-(Doc)4-Aepa-D-Phe-c(Cys-Tyr-D-Trp-Lys-Abu-Cys)-Thr-NH2 [5A′],–,–,–,–,–,–,≤ 6.00,≤ 6.00,≤ 6.00
